Experimental data reported in patent publication US20230144869A1, “METHODS FOR TREATING CYTOKINE RELEASE SYNDROME” (UNIVERSITY HEALTH NETWORK, priority 2020, published 2023).

Assays:
[1] = tested on: mouse primary cancer-associated fibroblasts (CAFs); assay: TGFβ production by primary cancer-associated fibroblasts (CAFs); type: cell-based; details: after 3 days; fold change relative to DMSO control; FIG. 3B
Excerpt: Cancer-associated fibroblasts (CAFs) are used as a model system to investigate TGFβ cytokine production. C57BL/6 mice were obtained from The Jackson Laboratory. The Institutional Animal Care and Use Committee of the University Health Network approved all animal procedures. CAFs were obtained from C57BL/6 mice by growing MC38-CEA mouse colon cancer xenografts subcutaneously in a conventional manner. When tumors reached a size of approximately 1000 mm^3 they were excised and disaggregated, and CAFs were isolated with a Tumor-Associated Fibroblast Isolation Kit (Miltenyi Biotec). Isolated CAFs were grown with a MesenCult Expansion Kit (STEMCELL Technologies, Inc.) at 37° C., 5% CO2, 3% O2, and 100% relative humidity. CAFs were seeded into a 96-well plate in DMEM medium containing 10% FBS 24 hours before treatment with either Compound 1 or DMSO. After 3 days, latent TGFβ was determined by a Mouse Latent TGFβ Legend Max kit by manufacturer's instructions (BioLegend, Inc.). Compound 1 inhibited TGFβ production by mouse primary CAFs. Data are representative of several independent experiments, and are reported as the fold change for Compound 1 relative to the DMSO control of duplicate wells.

[2] = tested on: CD4+ and CD8+ T-cells in peripheral blood mononuclear cells (PBMCs); assay: T-cell activation in stimulated PBMCs (activation markers by flow cytometry); type: cell-based, human; details: PBMCs stimulated with anti-CD3 and anti-CD28 antibodies, PHA or SEB; 24 or 48 hours; FIG. 1A
[3] = tested on: PBMCs (effector) with irradiated allogenic PBMCs (stimulator); assay: Allogenic mixed lymphocyte reaction (MLR); type: cell-based, human; details: 4 days plus 18 hours labeling; FIG. 2A-2C
Experimental: The allogenic MLR is a cell proliferation assay where one population of lymphocytes (effector cells) is stimulated to proliferate by another genetically distinct population of lymphocytes (stimulator cells), which have been rendered non-proliferative. PBMCs [2×10^5 cells, effector (E) population] and irradiated (IR) allogenic PBMCs [1×10^5 cells, stimulator (S) population] were treated with either Compound 1 or DMSO in RPMI 1640 medium containing 10% heat-inactivated FBS, 2-mercaptoethanol and penicillin-streptomycin antibiotics at 37° C., 5% CO2, and 100% humidity. After 4 days, the cells were labeled with ^3H-thymidine for an additional 18 hours to measure lymphocyte proliferation by liquid scintillation counting. […] Multiple independent experiments utilizing different effector/stimulator pairs were conducted. Data are reported as the mean counts per minute (CPM)±standard deviation (SD) of triplicate wells.

[4] = tested on: anti-CD3 antibody and anti-CD28 antibody-, PHA- or SEB-activated lymphocytes; assay: Proliferation of activated lymphocytes in PBMCs (3H-thymidine); type: cell-based, human; details: PBMCs stimulated with anti-CD3 and anti-CD28 antibodies, 24 hours plus 18 hours labeling, FIG. 1B
Experimental: PBMCs (2×10^5 cells) were treated with either Compound 1 or DMSO, and anti-CD3 and anti-CD28 antibodies, PHA or SEB in RPMI 1640 medium containing 10% heat-inactivated FBS, 2-mercaptoethanol and penicillin-streptomycin antibiotics at 37° C., 5% CO2, and 100% humidity. After 24 hours, the cells were labeled with ^3H-thymidine for an additional 18 hours to measure lymphocyte proliferation by liquid scintillation counting. Proliferation of anti-CD3 antibody and anti-CD28 antibody-, PHA- or SEB-activated lymphocytes was inhibited by Compound 1 treatment, as shown in FIG. 1B. Similar data were obtained at 48 hours (data not shown). Data are representative of several independent experiments utilizing different PBMC samples, and are reported as the mean counts per minute (CPM)±standard deviation (SD) of duplicate wells.

[5] = tested on: anti-CD3 antibody and anti-CD28 antibody-activated PBMCs; assay: Cytokine secretion by anti-CD3 and anti-CD28 antibody-activated PBMCs (LEGENDplex Human Th Cytokine Panel); type: cell-based; details: culture supernatants after 24 hours; fold change relative to DMSO control; FIG. 3A
Experimental: PBMCs (2×10^5 cells) were treated with either Compound 1 or DMSO, and anti-CD3 and anti-CD28 antibodies in RPMI 1640 medium containing 10% heat-inactivated FBS, 2-mercaptoethanol and penicillin-streptomycin antibiotics at 37° C., 5% CO2, and 100% humidity. After 24 hours, cytokine levels in culture supernatants were determined by a LEGENDplex Human Th Cytokine Panel by manufacturer's instructions (BioLegend, Inc.).
In the presence of Compound 1, the level of all measured cytokines decreased, including IL-2, IL-6, IFNγ and TNFα. Data are representative of several independent experiments utilizing different human PBMC samples, and are reported as the fold change for Compound 1 relative to the DMSO control of duplicate wells.

[6] = tested on: resting CD4+ and CD8+ T-cells; assay: Viability of resting T-cells (annexin V / 7-AAD flow cytometry); type: cell-based, human; details: 48 hours; except at high concentrations (30 μM); FIG. 4
Experimental: (§1) CD3^+ T-cells and CD14^+ monocytes were purified from PBMCs using Human CD3 MicroBeads and Human CD14 MicroBeads, respectively (Miltenyi Biotech). Purified CD3^+ T-cells (2×10^5 cells) or CD14^+ monocytes (2×10^5 cells) were treated with either Compound 1 or DMSO in RPMI 1640 medium containing 10% heat-inactivated FBS, 2-mercaptoethanol and penicillin-streptomycin antibiotics at 37° C., 5% CO2, and 100% humidity. After 48 hours, the cells were stained with antibodies specific for the indicated cell subsets, and annexin V and 7-aminoactinomycin D (7-AAD) cell viability dyes for measurement by flow cytometry. […] Similar data were obtained at 24 and 72 hours (data not shown). Data are representative of several independent experiments utilizing different human PBMC samples, and are reported as the A decrease in percent viability of duplicate wells [mean±standard deviation (SD)].

[7] = tested on: unstimulated whole blood; assay: Whole blood cytokine release assay (CRA); type: cell-based; details: whole blood diluted 4:1 with RPMI 1640, 4 hours; LEGENDplex Human Th Cytokine Panel
Experimental: The potential for cytokine release syndrome in patients treated with Compound 1 was evaluated using a whole blood cytokine release assay (CRA). Fresh whole blood from a healthy human donor was diluted 4:1 with RPMI 1640 medium and cultured for 4 hours in the presence of Compound 1 or DMSO. Lipopolysaccharide (LPS) (1 μg/mL) was used as a positive control. Cytokine levels in serum samples were determined by a LEGENDplex Human Th Cytokine Panel by manufacturer's instructions (BioLegend, Inc.). […] Data listed in Table 1 below are representative of several independent experiments, and are reported as the mean fold change for Compound 1 relative to the DMSO control of duplicate wells.

[8] = tested on: resting CD14+ monocytes; assay: Viability of resting monocytes (annexin V / 7-AAD flow cytometry); type: cell-based, human; details: 48 hours; FIG. 4
Experimental: as §1

[9] = tested on: C57BL/6 mice immunized with MOG35-55 peptide; assay: Experimental autoimmune encephalomyelitis (EAE) model; type: in vivo, mouse; details: 50 mg/kg PO QD during EAE induction; FIG. 5

CN1CCN(c2ccc3nc(-c4c(N)c5ccsc5[nH]c4=O)[nH]c3c2)CC1 [Compound 1]
TGFβ production (latent TGFβ) [1]: inhibited
CD4+ and CD8+ T-cell activation (cell surface expression of CD25 and CD69, shedding of CD62L) [2]: titratable inhibition
Lymphocyte proliferation in allogenic MLR (3H-thymidine, CPM) [3]: dose-dependent inhibition
Lymphocyte proliferation (3H-thymidine, CPM) [4]: inhibited
Level of all measured cytokines, including IL-2, IL-6, IFNγ and TNFα [5]: decreased
Viability of resting CD4+ and CD8+ T-cells [6]: no significant effect
Induction of cytokine levels predictive of cytokine release syndrome in vivo [7]: did not induce
Viability of resting CD14+ monocytes [8]: dose-dependent loss of viability

CN1CCN(c2ccc3nc(-c4c(N)c5sccc5[nH]c4=O)[nH]c3c2)CC1 [Compound 2]
EAE disease progression (clinical score) [9]: blocks EAE disease progression
